PubChem BioAssay (NCI)
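Assay format: 96-well plates, 48-hour exposure. TGI: total growth inhibition.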

Tests used:
Test in all cases: NCI-60 cell line screen, 48 h
786-0 renal = tested on: 786-0 renal
A549 NSCLC = tested on: A549 NSCLC
ACHN renal = tested on: ACHN renal
CAKI-1 renal = tested on: CAKI-1 renal
CCRF-CEM leukemia = tested on: CCRF-CEM leukemia
COLO 205 colon = tested on: COLO 205 colon
DU-145 prostate = tested on: DU-145 prostate
EKVX NSCLC = tested on: EKVX NSCLC
HCC-2998 colon = tested on: HCC-2998 colon
HCT-116 colon = tested on: HCT-116 colon
HCT-15 colon = tested on: HCT-15 colon
HL-60(TB) leukemia = tested on: HL-60(TB) leukemia
HOP-62 NSCLC = tested on: HOP-62 NSCLC
HOP-92 NSCLC = tested on: HOP-92 NSCLC
HS 578T breast = tested on: HS 578T breast
HT29 colon = tested on: HT29 colon
IGROV1 ovarian = tested on: IGROV1 ovarian
K-562 leukemia = tested on: K-562 leukemia
KM12 colon = tested on: KM12 colon
LOX IMVI melanoma = tested on: LOX IMVI melanoma
M14 melanoma = tested on: M14 melanoma
MCF7 breast = tested on: MCF7 breast
MDA-MB-231 breast = tested on: MDA-MB-231 breast
MDA-MB-435 = tested on: MDA-MB-435
MDA-N = tested on: MDA-N
MOLT-4 leukemia = tested on: MOLT-4 leukemia
NCI-H226 lung = tested on: NCI-H226 lung
NCI-H23 lung = tested on: NCI-H23 lung
NCI-H460 lung = tested on: NCI-H460 lung
NCI-H522 lung = tested on: NCI-H522 lung
NCI/ADR-RES ovarian = tested on: NCI/ADR-RES ovarian
OVCAR-3 ovarian = tested on: OVCAR-3 ovarian
OVCAR-4 ovarian = tested on: OVCAR-4 ovarian
OVCAR-5 ovarian = tested on: OVCAR-5 ovarian
OVCAR-8 ovarian = tested on: OVCAR-8 ovarian
PC-3 prostate = tested on: PC-3 prostate
RPMI-8226 leukemia = tested on: RPMI-8226 leukemia
RXF 393 renal = tested on: RXF 393 renal
SF-268 CNS = tested on: SF-268 CNS
SF-295 CNS = tested on: SF-295 CNS
SF-539 CNS = tested on: SF-539 CNS
SK-MEL-2 melanoma = tested on: SK-MEL-2 melanoma
SK-MEL-28 melanoma = tested on: SK-MEL-28 melanoma
SK-MEL-5 melanoma = tested on: SK-MEL-5 melanoma
SK-OV-3 ovarian = tested on: SK-OV-3 ovarian
SN12C renal = tested on: SN12C renal
SNB-19 CNS = tested on: SNB-19 CNS
SNB-75 CNS = tested on: SNB-75 CNS
SR leukemia = tested on: SR leukemia
SW-620 colon = tested on: SW-620 colon
T-47D breast = tested on: T-47D breast
TK-10 renal = tested on: TK-10 renal
U251 CNS = tested on: U251 CNS
UACC-257 melanoma = tested on: UACC-257 melanoma
UACC-62 melanoma = tested on: UACC-62 melanoma
UO-31 renal = tested on: UO-31 renal
A498 renal = tested on: A498 renal
BT-549 breast = tested on: BT-549 breast
MALME-3M melanoma = tested on: MALME-3M melanoma

OC(c1ccoc1)c1cc2ccccc2s1 (stereo not given)
TGI (786-0 renal): > 10 µM | TGI (A549 NSCLC): > 10 µM | TGI (ACHN renal): > 10 µM | TGI (CAKI-1 renal): > 10 µM | TGI (CCRF-CEM leukemia): > 10 µM | TGI (COLO 205 colon): > 10 µM | TGI (DU-145 prostate): > 10 µM | TGI (EKVX NSCLC): > 10 µM | TGI (HCC-2998 colon): > 10 µM | TGI (HCT-116 colon): > 10 µM | TGI (HCT-15 colon): > 10 µM | TGI (HL-60(TB) leukemia): > 10 µM | TGI (HOP-62 NSCLC): > 10 µM | TGI (HOP-92 NSCLC): > 10 µM | TGI (HS 578T breast): > 10 µM | TGI (HT29 colon): > 10 µM | TGI (IGROV1 ovarian): > 10 µM | TGI (K-562 leukemia): > 10 µM | TGI (KM12 colon): > 10 µM | TGI (LOX IMVI melanoma): > 10 µM | TGI (M14 melanoma): > 10 µM | TGI (MCF7 breast): > 10 µM | TGI (MDA-MB-231 breast): > 10 µM | TGI (MDA-MB-435): > 10 µM | TGI (MDA-N): > 10 µM | TGI (MOLT-4 leukemia): > 10 µM | TGI (NCI-H226 lung): > 10 µM | TGI (NCI-H23 lung): > 10 µM | TGI (NCI-H460 lung): > 10 µM | TGI (NCI-H522 lung): > 10 µM | TGI (NCI/ADR-RES ovarian): > 10 µM | TGI (OVCAR-3 ovarian): > 10 µM | TGI (OVCAR-4 ovarian): > 10 µM | TGI (OVCAR-5 ovarian): > 10 µM | TGI (OVCAR-8 ovarian): > 10 µM | TGI (PC-3 prostate): > 10 µM | TGI (RPMI-8226 leukemia): > 10 µM | TGI (RXF 393 renal): > 10 µM | TGI (SF-268 CNS): > 10 µM | TGI (SF-295 CNS): > 10 µM | TGI (SF-539 CNS): > 10 µM | TGI (SK-MEL-2 melanoma): > 10 µM | TGI (SK-MEL-28 melanoma): > 10 µM | TGI (SK-MEL-5 melanoma): > 10 µM | TGI (SK-OV-3 ovarian): > 10 µM | TGI (SN12C renal): > 10 µM | TGI (SNB-19 CNS): > 10 µM | TGI (SNB-75 CNS): > 10 µM | TGI (SR leukemia): > 10 µM | TGI (SW-620 colon): > 10 µM | TGI (T-47D breast): > 10 µM | TGI (TK-10 renal): > 10 µM | TGI (U251 CNS): > 10 µM | TGI (UACC-257 melanoma): > 10 µM | TGI (UACC-62 melanoma): > 10 µM | TGI (UO-31 renal): > 10 µM

Cc1cc2c(O)c(c1)COCc1cc(C)cc(c1O)COCc1cc(C)cc(c1O)COC2
TGI (786-0 renal): > 100 µM | TGI (A498 renal): > 100 µM | TGI (A549 NSCLC): > 100 µM | TGI (ACHN renal): > 100 µM | TGI (BT-549 breast): > 100 µM | TGI (CAKI-1 renal): > 100 µM | TGI (CCRF-CEM leukemia): > 100 µM | TGI (COLO 205 colon): > 100 µM | TGI (DU-145 prostate): > 100 µM | TGI (EKVX NSCLC): > 100 µM | TGI (HCC-2998 colon): > 100 µM | TGI (HCT-116 colon): > 100 µM | TGI (HCT-15 colon): > 100 µM | TGI (HL-60(TB) leukemia): > 100 µM | TGI (HOP-62 NSCLC): > 100 µM | TGI (HOP-92 NSCLC): > 100 µM | TGI (HT29 colon): > 100 µM | TGI (K-562 leukemia): > 100 µM | TGI (KM12 colon): > 100 µM | TGI (M14 melanoma): > 100 µM | TGI (MALME-3M melanoma): > 100 µM | TGI (MCF7 breast): > 100 µM | TGI (MDA-MB-231 breast): > 100 µM | TGI (MDA-MB-435): > 100 µM | TGI (MDA-N): > 100 µM | TGI (MOLT-4 leukemia): > 100 µM | TGI (NCI-H226 lung): > 100 µM | TGI (NCI-H23 lung): > 100 µM | TGI (NCI-H460 lung): > 100 µM | TGI (NCI-H522 lung): > 100 µM | TGI (NCI/ADR-RES ovarian): > 100 µM | TGI (OVCAR-3 ovarian): > 100 µM | TGI (OVCAR-4 ovarian): > 100 µM | TGI (OVCAR-5 ovarian): > 100 µM | TGI (OVCAR-8 ovarian): > 100 µM | TGI (PC-3 prostate): > 100 µM | TGI (RPMI-8226 leukemia): > 100 µM | TGI (RXF 393 renal): > 100 µM | TGI (SF-268 CNS): > 100 µM | TGI (SF-295 CNS): > 100 µM | TGI (SF-539 CNS): > 100 µM | TGI (SK-MEL-2 melanoma): > 100 µM | TGI (SK-MEL-28 melanoma): > 100 µM | TGI (SK-OV-3 ovarian): > 100 µM | TGI (SN12C renal): > 100 µM | TGI (SNB-19 CNS): > 100 µM | TGI (SNB-75 CNS): > 100 µM | TGI (SR leukemia): > 100 µM | TGI (SW-620 colon): > 100 µM | TGI (T-47D breast): > 100 µM | TGI (U251 CNS): > 100 µM | TGI (UACC-257 melanoma): > 100 µM | TGI (UACC-62 melanoma): > 100 µM | TGI (UO-31 renal): > 100 µM

CC12CP(=O)(c3ccccc3)CC1c1ccccc1C2c1ccccc1 (stereo not given)
TGI (786-0 renal): 32.8 µM | TGI (A498 renal): > 100 µM | TGI (A549 NSCLC): 36.2 µM | TGI (ACHN renal): 41.1 µM | TGI (CCRF-CEM leukemia): 23.5 µM | TGI (DU-145 prostate): 64 µM | TGI (EKVX NSCLC): 44.6 µM | TGI (HCC-2998 colon): 33.9 µM | TGI (HCT-116 colon): 30.4 µM | TGI (HCT-15 colon): 27.2 µM | TGI (HL-60(TB) leukemia): 28.5 µM | TGI (HOP-62 NSCLC): 35.4 µM | TGI (HOP-92 NSCLC): 50 µM | TGI (HS 578T breast): > 100 µM | TGI (HT29 colon): 28.8 µM | TGI (IGROV1 ovarian): 46 µM | TGI (K-562 leukemia): 25.5 µM | TGI (KM12 colon): 33.6 µM | TGI (M14 melanoma): 31.8 µM | TGI (MALME-3M melanoma): 30.3 µM | TGI (MCF7 breast): > 100 µM | TGI (MDA-MB-231 breast): 40.1 µM | TGI (MDA-MB-435): 30.1 µM | TGI (MDA-N): 33.6 µM | TGI (MOLT-4 leukemia): 31 µM | TGI (NCI-H226 lung): 44.1 µM | TGI (NCI-H23 lung): 41.8 µM | TGI (NCI-H460 lung): 27.6 µM | TGI (NCI/ADR-RES ovarian): 32.7 µM | TGI (OVCAR-3 ovarian): 31.7 µM | TGI (OVCAR-5 ovarian): > 100 µM | TGI (OVCAR-8 ovarian): 28.6 µM | TGI (PC-3 prostate): 27.1 µM | TGI (RXF 393 renal): 46.6 µM | TGI (SF-268 CNS): 67 µM | TGI (SF-295 CNS): 29.8 µM | TGI (SF-539 CNS): 34.1 µM | TGI (SK-MEL-2 melanoma): 49.4 µM | TGI (SK-MEL-28 melanoma): 75 µM | TGI (SK-MEL-5 melanoma): 55.1 µM | TGI (SK-OV-3 ovarian): > 100 µM | TGI (SN12C renal): 32.2 µM | TGI (SNB-19 CNS): > 100 µM | TGI (SR leukemia): 29.8 µM | TGI (SW-620 colon): 33.2 µM | TGI (T-47D breast): 37.5 µM | TGI (TK-10 renal): > 100 µM | TGI (U251 CNS): 36.7 µM | TGI (UACC-62 melanoma): > 100 µM | TGI (UO-31 renal): 30.4 µM
